Experimental data from US7741280B2, “Multimeric molecules, the preparation method thereof and use of same for the preparation of medicaments” (Centre National de la Recherche Scientifique, priority 2002, dated 2010).
Where two headings read alike, the source gives them in different places. Where a SMILES comes first, the peptide text is derived from it. Bridges are numbered along the chain shown (N, C = ends). Roman numbers before positions name the chains, in order. Where no end group is shown, it is not given here. Side-chain parts run from the residue outwards. [ ]: non-standard residue; d: D form. Ahx = NCCCCCC(=O)O

Experiments:
[1] = target: T1, CD40-CD40L interaction (Homo sapiens, UniProt P25942); assay: Expression of CD95 induced by CD40L on BL41 cells cultured with 3T6-CD40L fibroblasts (flow cytometry); assay type: cell-based; settings: for % of inhibition of the expression of CD95 induced by CD40L: BL41 + 3T6-CD40L, 48 hours
T1 construct: they receive a signal via the CD40 molecule, which they express in a constitutive manner; endogenous in cells; host or cells: BL41 Burkitt's lymphoma cells (endogenous CD40), co-cultured with 3T6 fibroblasts transfected with CD40L
Description: Then, the affinity of these ligands for the CD40 molecule is evaluated using a biosensor (BIAcore™). The agonist or antagonist effect of the ligands was tested using two simple biological tests. In the first, the expression of the membranous molecule CD95 by transformed B cells (Burkitt's lymphoma) is studied after activation by the CD40-CD40L interaction (Schattner et al., 1996). In such a model, the CD40L partner is expressed on transfected fibroblasts (3T6-CD40L) (Buelens et al., 1997). The BL41 Burkitt's lymphoma cells are incubated with non-transfected 3T6 fibroblasts (FIGS. 3A and 3C) or with 3T6 fibroblasts transfected by CD40L (FIGS. 3B and 3D). After 48 hours, the expression of CD95 is evaluated by flow cytometry. The expression of CD95 is induced in the presence of CD40L (FIG. 3B). A commercial anti-CD40L antibody inhibits the consequences of the CD40-CD40L interaction (FIG. 3D).
The antagonist effect is evaluated by measurement of the decrease in the expression of CD95 induced by the CD40L in the presence of the different chemical ligands (see Table I). With the help of these tests, the most interesting ligands are chosen to evaluate their activity in vivo and in vitro in more complex models.
The lymphoma B cells express the CD95 molecule when they receive a signal via the CD40 molecule, which they express in a constitutive manner. This signal is generally conveyed by the CD40L (CD154) molecule expressed by another cell. The antagonist ligands inhibit the binding of CD40 on CD40L and thus […] the expression of CD95. The agonist ligands copy the CD40L molecule and induce the expression of CD95 even in the absence of the cell expressing CD40L.
The BL41 Burkitt's lymphoma cells (5.10^5/ml) are cultured in the presence of 3T6 fibroblasts (10^5/ml) transfected (3T6-CD40L) or not transfected with CD40L (3T6), and treated with mitomycin to stop their proliferation. The ligands are added at the start of the culture at the chosen concentration. After culture for 48 hours, expression of the CD95 molecule is measured by flow cytometry. The BL41 cells are distinguished from the fibroblasts using an anti-CD19 antibody (specific marker of the B cells).

[2] = target: T2, human CD40 muIg fusion protein (UniProt P01863+P25942); assay: Biacore3000 surface plasmon resonance study of the CD40/CD40L interaction and the ligands; assay type: binding
T2 construct: purchased ANCELL Corporation, Bayport, Minn
Source text: The Biacore3000 is a device which allows the interactions between two molecules to be studied, based on the surface plasmon resonance. It allows measurement in real time, and therefore allows the kinetics of interaction (association and disassociation) of an analyte (which is in an injected solution) and of a ligand (immobilised on a microchip supporting the measurement) to be monitored. The kinetic measurements at different concentrations of analyte allow calculation of the affinity constants of the interaction between the ligand and the analytes. The microchip contains four cells for different measurements, which allows direct comparison of a reference cell on which a protein which is not pertinent (protein which has no affinity with the ligand studied), but close to the ligand is immobilised with the cell on which the ligand is immobilised.
Rabbit antibodies directed against the constant region of mouse immunoglobulins were immobilized on a microchip. In the reference cell a monoclonal mouse antibody of isotype IgG2a (LG112) at 40 nM is immobilized with a flow of 5 μL/min for 2 minutes; in the cell of the ligand the recombinant CD40 associated with the constant region of the mouse IgG2a heavy chain (human CD40 muIg fusion protein, ANCELL Corporation, Bayport, Minn.) is immobilized under the same conditions.
On the two cells (reference and ligand), the CD40L (human CD154 muCD8 fusion protein, ANCELL Corporation) at different concentrations or the CD40L at a concentration of 1 μM or of 125 nM, are injected, as analyte, in the presence of different concentrations of ligands. The flow in the presence of the analytes is 10 μL/min for 5 minutes to study the association and, in the absence of analytes, the conditions are the same to study the dissociation.
In order to regenerate the cells (i.e. remove all the proteins adsorbed in a non-covalent manner), a solution of 10 mM of HCl is injected at 5 μL/min for 1 minute. The cells are then ready for another analysis.

[3] = system: BL41 Burkitt's lymphoma cells; assay: Inhibition of proliferation of BL41 cells (incorporation of tritiated thymidine); assay type: cell-based; settings: 24 hours culture, FIG. 4A, 50 μM to 50 nM
Description: Tritiated thymidine was added at a concentration of 1 μci/well (0.8.10^5 cells/well) for the last 8 hours of culture and the incorporation of tritiated thymidine measured using a gaseous scintillation β counter.
The second test is based on the property of certain B lymphomas to cease proliferation and enter apoptosis during the bridging of their membranous CD40 molecule (Tong et al., 1999). In this test, the BL41 cells are incubated with ligands CD40 and after 24 hours either the inhibition of proliferation of these cells is measured, by studying the incorporation of tritiated thymidine, or the percentage of apoptotic cells is measured with a flow cytometry study (FIGS. 4A and 4B).
Certain B lymphomas enter apoptosis when their CD40 molecule is bridged by an anti-CD40 antibody or by CD40L which is soluble independently from the CD95 molecule. This induction of apoptosis is expressed as a decrease in proliferation measured by the incorporation of tritiated thymidine. The agonist ligands of CD40 will induce an increase in apoptosis and as a result a decrease in the incorporation of tritiated thymidine.
The BL41 Burkitt's lymphoma cells (4.10^5/mL) are cultured in the presence of the different ligands at the chosen concentration. After 24 hours, the cells are either incubated for 8 hours with tritiated thymidine (1 μci/well) to measure the proliferation or are labelled with Annexin V-FITC and propidium iodide to evaluate the percentage of apoptotic cells with flow cytometry.

[4] = target: CD40 molecule expressed constitutively by BL41 Burkitt's lymphoma cells (UniProt P25942); assay: cell-based or functional assay
Chain of CD40 molecule expressed constitutively by BL41 Burkitt's lymphoma cells (P25942 21-277 limits assumed): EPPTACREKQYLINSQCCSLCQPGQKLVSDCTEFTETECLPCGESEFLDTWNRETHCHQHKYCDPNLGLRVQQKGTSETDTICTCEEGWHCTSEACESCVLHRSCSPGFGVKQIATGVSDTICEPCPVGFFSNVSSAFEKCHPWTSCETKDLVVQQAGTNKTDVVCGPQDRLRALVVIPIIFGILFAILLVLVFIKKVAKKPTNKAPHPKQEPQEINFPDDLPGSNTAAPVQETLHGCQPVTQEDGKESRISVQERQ

T1 sequence (P25942 21-277): as the sequence (P25942 21-277 limits assumed) above
T2 sequence (P25942+P01863 fused): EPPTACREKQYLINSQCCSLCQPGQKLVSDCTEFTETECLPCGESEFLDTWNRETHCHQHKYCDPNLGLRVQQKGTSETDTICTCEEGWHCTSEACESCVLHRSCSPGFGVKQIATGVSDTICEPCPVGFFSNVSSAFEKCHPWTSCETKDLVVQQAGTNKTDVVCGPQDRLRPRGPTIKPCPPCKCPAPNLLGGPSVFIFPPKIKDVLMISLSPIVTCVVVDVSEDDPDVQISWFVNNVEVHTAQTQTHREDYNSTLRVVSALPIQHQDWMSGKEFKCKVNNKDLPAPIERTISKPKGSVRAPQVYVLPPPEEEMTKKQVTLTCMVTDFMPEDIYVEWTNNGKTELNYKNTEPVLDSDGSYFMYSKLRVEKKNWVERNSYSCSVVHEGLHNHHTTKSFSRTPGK

With C[C@H](NC(=O)[C@H](CCCCNC(=O)[C@H](CCCCNC(=O)[C@H](CCCCNC(=O)[C@H](CCCCNC(=O)[C@H](Cc1ccc(O)cc1)NC(=O)[C@H](Cc1ccc(O)cc1)NC(=O)CNC(=O)[C@@H](N)CCCCN)NC(=O)[C@H](Cc1ccc(O)cc1)NC(=O)[C@H](Cc1ccc(O)cc1)NC(=O)CNC(=O)[C@@H](N)CCCCN)NC(=O)[C@H](Cc1ccc(O)cc1)NC(=O)[C@H](Cc1ccc(O)cc1)NC(=O)CNC(=O)[C@@H](N)CCCCN)NC(=O)[C@H](Cc1ccc(O)cc1)NC(=O)[C@H](Cc1ccc(O)cc1)NC(=O)CNC(=O)[C@@H](N)CCCCN)NC(=O)[C@H](Cc1ccc(O)cc1)NC(=O)[C@H](Cc1ccc(O)cc1)NC(=O)CNC(=O)[C@@H](N)CCCCN)C(=O)O [L3] (I: H-KGYYKA-OH / II: H-KGYYK([Tyr-Tyr-Gly-Lys]) / III: H-KGYYK / IV: H-KGYYK; amide I:5-IV:C, II:C-III:5, III:C-IV:5) the “% of inhibition of the expression of CD95 induced by CD40L” value ([1]; ligand 5 μM) was 0%, the “% of inhibition of the expression of CD95 induced by CD40L” value ([1]; ligand 10 μM) was 13% and the “% of inhibition of the expression of CD95 induced by CD40L” value ([1]; ligand 25 μM) was 25%. The “% of inhibition of the expression of CD95 induced by CD40L” value ([1]; ligand 50 μM) was 62% and the “% of inhibition of the expression of CD95 induced by CD40L” value ([1]; ligand 100 μM) was 60%.

NCCCC[C@H](N)C(=O)NCC(=O)N[C@@H](Cc1ccc(O)cc1)C(=O)N[C@@H](Cc1ccc(O)cc1)C(=O)NCCCCCC(=O)NCCCC[C@H]1CC(=O)N[C@@H](CCCCNC(=O)CCCCCNC(=O)[C@H](Cc2ccc(O)cc2)NC(=O)[C@H](Cc2ccc(O)cc2)NC(=O)CNC(=O)[C@@H](N)CCCCN)CC(=O)N[C@@H](CCCCNC(=O)CCCCCNC(=O)[C@H](Cc2ccc(O)cc2)NC(=O)[C@H](Cc2ccc(O)cc2)NC(=O)CNC(=O)[C@@H](N)CCCCN)CC(=O)N1 [L9] was tested, and the IC50 ([2]; in the presence of 100 nM of CD40L, read-out: inhibition of 50% of the binding of CD40L (IC50)) was < 50 nM and the “equilibrium constant compared with L4” value ([2]; inferred from IC50, same conditions as L4) was “less than that of L4”.

“L12: from linear 8-B core coupled with pentapeptide 1-A; linear version of L9 (chain Lys-Lys-Lys; peptide KGYY; not fully specified (some residues, C-terminus); also: peptide (pentapeptide 1-A) coupled to linear core 8-B, linkage and core structure not given here)” was tested, and the “binding to CD40 and displacement of CD40L (in words)” value ([2]; in the presence of 100 nM of CD40L) was “Only the L4 and L9 molecules bind to CD40”.

In the case of “L7-2: L7 analogue with the reverse sequence H-Tyr-Tyr-Gly-Lys- (YYGK)”, the “inhibition of the proliferation of BL41 cells (in words)” value [3] is reported as “only have a small or no effect”.

With C[C@H](NC(=O)[C@H](CCCCNC(=O)[C@H](CCCCNC(=O)[C@H](CCCCNC(=O)[C@H](CCCCNC(=O)[C@H](CCCNC(=N)N)NC(=O)[C@@H]1CCCN1C[C@@H](N)CCCCN)NC(=O)[C@H](CCCNC(=N)N)NC(=O)[C@@H]1CCCN1C[C@@H](N)CCCCN)NC(=O)[C@H](CCCNC(=N)N)NC(=O)[C@@H]1CCCN1C[C@@H](N)CCCCN)NC(=O)[C@H](CCCNC(=N)N)NC(=O)[C@@H]1CCCN1C[C@@H](N)CCCCN)NC(=O)[C@H](CCCNC(=N)N)NC(=O)[C@@H]1CCCN1C[C@@H](N)CCCCN)C(=O)O [L1] the “% of inhibition of the expression of CD95 induced by CD40L” value ([1]; ligand 25 μM) was 0%, the “% of inhibition of the expression of CD95 induced by CD40L” value ([1]; ligand 50 μM) was 43% and the “% of inhibition of the expression of CD95 induced by CD40L” value ([1]; ligand 100 μM) was 60%. For the same molecule, the Kd ([2]; analyte CD40L at 1 μM and L1 at 50 μM, read-out: equilibrium constant) was > 50000 nM.

In the case of CC(=O)NCCCC[C@H](NC(C)=O)C(=O)NCCCCC(NC(C)=O)C(=O)NCCCC[C@H](NC(C)=O)C(=O)NCCCC[C@H](NC(C)=O)C(=O)N[C@@H](C)C(=O)O (stereo partly shown) [L2], the “effect on the expression of CD95 induced by CD40L (in words)” value ([1]; BL41 cells in the presence of 3T6-CD40L cells, no concentration stated) is reported as “no effect”, the “% of inhibition of the expression of CD95 induced by CD40L” value ([1]; ligand 25 μM) is reported as 0% and the “% of inhibition of the expression of CD95 induced by CD40L” value ([1]; ligand 50 μM) is reported as 0%. The “% of inhibition of the expression of CD95 induced by CD40L” value ([1]; ligand 100 μM) was 0%.

In the case of “L7-3: L7 analogue: replacement of the aminohexanoic acid spacer arm by a glycine (KGYYG; not fully specified (C-terminus); also: L7 analogue: aminohexanoic acid spacer replaced by glycine, core as L7)”, the “inhibition of the proliferation of BL41 cells (in words)” value [3] is reported as “only have a small or no effect”.

B1: Compound L2 (ligand L2), core structure of the ligands L1 and L3 (peptide)
chain: KKKKA
modifications: also: four Lys joined through epsilon-amines (isopeptide bonds), free amine groups acetylated
B1 showed a % of inhibition of the expression of CD95 induced by CD40L, ligand at 25 µM [4] of 0%, a % of inhibition of the expression of CD95 induced by CD40L, ligand at 50 µM [4] of 0% and a % of inhibition of the expression of CD95 induced by CD40L, ligand at 100 µM [4] of 0%.

B2: Compound L4a (ligand L4a): same core molecule as L4 with only 2 examples of the peptide sequence (peptide)
chain: [dA]K[dA]K[dA]K
peptide: H-KGYY[Ahx]
modifications: also: two copies of chain 2 linked via Ahx to epsilon-amines of two core Lys, which Lys not given here, further groups not given here, head-to-tail to a chain's N/C-terminus
B2 was tested, and the % of inhibition of the expression of CD95 induced by CD40L, ligand at 0.5 µM [4] was 0%, the % of inhibition of the expression of CD95 induced by CD40L, ligand at 5 µM [4] was 8% and the % of inhibition of the expression of CD95 induced by CD40L, ligand at 50 µM [4] was 13%.

B3: CD40L: human CD154 muCD8 fusion protein, ANCELL Corporation (protein)
chain: KPQAPELRIFPKKMDAELGQKVDLVCEVLGSVSQGCSWLFQNSSSKLPQPTFVVYMASSHNKITWDEKLNSSKLFSAMRDTNNKYVLTLNKFSKENEGYYFCSVISNSVMYFSSVVPVLQKVNSTTTKPVLRTPSPVHPTGTSQPQRPEDCRPRGSVKGTGLDFACDIYHRRLDKIEDERNLHEDFVFMKTIQRCNTGERSLSLLNCEEIKSQFEGFVKDIMLNKEETKKENSFEMQKGDQNPQIAAHVISEASSKTTSVLQWAEKGYYTMSNNLVTLENGKQLTVKRQGLYYIYAQVTFCSNREASSQAPFIASLCLKSPGRFERILLRAANTHSSAKPCGQQSIHLGGVFELQPGASVFVNVTDPSQVSHGTGFTSFGLLKL
For B3, the Kd ([2]; 4 concentrations of CD40L from 62.5 to 500 nM, read-out: equilibrium constant of CD40L for CD40) was 54 nM.
